Measurements from PubChem BioAssay AID256 (DTP/NCI, 2004).
Values joined by “and” are separate entries in the source; they are usually repeats but may differ in a detail not shown here. Equal values may be shown once. Inconclusive results and toxic doses are left out. How the source made its calls: active means survival T/C of 150% or more; inactive means T/C below 125% in these data.

Test system: CD2F1 mice, L1210 leukemia ip, survival T/C
Assay: NCI In Vivo Anticancer Drug Screen. Data for tumor model L1210 Leukemia (intraperitoneal) in CD2F1 (CDF1) mice
Details: higher = longer survival
How it was run: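 Antitumor effect is scored in animals hosting a serially transplanted tumor. Values compare compound-dosed animals against vehicle-only controls as a simple quotient.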

[1] = endpoint: mean survival time, dose: 100.0 mg/kg/injection, schedule: Q01DX009 (ip), vehicle: saline with Tween-80
[2] = endpoint: mean survival time, dose: 200.0 mg/kg/injection, schedule: Q01DX009 (ip), vehicle: saline with Tween-80
[3] = endpoint: mean survival time, dose: 400.0 mg/kg/injection, schedule: Q01DX009 (ip), vehicle: saline with Tween-80
[4] = endpoint: mean survival time, dose: 100.0 mg/kg/injection, schedule: Q01DX001 (ip), vehicle: saline with Tween-80
[5] = endpoint: mean survival time, dose: 100.0 mg/kg/injection, schedule: Q04DX002 (ip), vehicle: saline with Tween-80
[6] = endpoint: mean survival time, dose: 100.0 mg/kg/injection, schedule: Q04DX003 (ip), vehicle: saline with Tween-80
[7] = endpoint: mean survival time, dose: 200.0 mg/kg/injection, schedule: Q04DX003 (ip), vehicle: saline with Tween-80
[8] = endpoint: mean survival time, dose: 400.0 mg/kg/injection, schedule: Q04DX003 (ip), vehicle: saline with Tween-80

Measured: T/C

COC(=O)C12OCC34C(CC5C(C)C6=CC(=O)OC6=CC5(C)C3C(O)C1O)OC(=O)C(OC(C)=O)C24 (centres undefined)
inactive: endpoint: median survival time, dose: 0.13 mg/kg/injection, schedule: Q01DX009 (ip), vehicle: saline + alcohol 98 % of control | endpoint: median survival time, dose: 0.25 mg/kg/injection, schedule: Q01DX009 (ip), vehicle: saline + alcohol 98 % of control | endpoint: median survival time, dose: 0.5 mg/kg/injection, schedule: Q01DX009 (ip), vehicle: saline + alcohol 98 % of control | endpoint: median survival time, dose: 1.0 mg/kg/injection, schedule: Q01DX009 (ip), vehicle: saline + alcohol 100 % of control | endpoint: median survival time, dose: 2.0 mg/kg/injection, schedule: Q01DX009 (ip), vehicle: saline + alcohol 102 % of control and 103 % of control | endpoint: median survival time, dose: 4.0 mg/kg/injection, schedule: Q01DX009 (ip), vehicle: saline + alcohol 102 % of control | endpoint: median survival time, dose: 8.0 mg/kg/injection, schedule: Q01DX009 (ip), vehicle: saline + alcohol 94 % of control | endpoint: median survival time, dose: 16.0 mg/kg/injection, schedule: Q01DX009 (ip), vehicle: saline + alcohol 96 % of control

O=C(N/N=C/c1ccc([N+](=O)[O-])o1)c1ccccc1N=Cc1ccc([N+](=O)[O-])o1
inactive: [1] 96 % of control | [2] 98 % of control | [3] 104 % of control

CCOC(=O)Cc1ccnc(C)c1
inactive: [4] 93 % of control | [1] 100 % of control | endpoint: mean survival time, dose: 200.0 mg/kg/injection, schedule: Q01DX001 (ip), vehicle: saline with Tween-80 94 % of control | [2] 103 % of control | endpoint: mean survival time, dose: 400.0 mg/kg/injection, schedule: Q01DX001 (ip), vehicle: saline with Tween-80 96 % of control

CC(C)OC(=O)Nc1nc2ccccc2s1
inactive: [5] 92 % of control | endpoint: mean survival time, dose: 200.0 mg/kg/injection, schedule: Q04DX002 (ip), vehicle: saline with Tween-80 95 % of control | endpoint: mean survival time, dose: 400.0 mg/kg/injection, schedule: Q04DX002 (ip), vehicle: saline with Tween-80 92 % of control

CC1(C)C2=CCCC3(OCCO3)C2(C)CCC1O (centres undefined)
inactive: [1] 104 % of control | [6] 98 % of control | [2] 106 % of control | [7] 98 % of control | [3] 98 % of control | [8] 101 % of control

NCS(=O)(=O)O
inactive: [4] 98 % of control

NC(N)=NC(N)=Nc1ccc(-c2ccccc2)cc1
inactive: endpoint: mean survival time, dose: 25.0 mg/kg/injection, schedule: Q01DX001 (ip), vehicle: saline with Tween-80 100 % of control | endpoint: mean survival time, dose: 50.0 mg/kg/injection, schedule: Q01DX001 (ip), vehicle: saline with Tween-80 103 % of control | [4] 93 % of control

O=C(CNC(=O)Nc1cccc(C(F)(F)F)c1)N/N=C/c1ccccc1Cl
inactive: endpoint: mean survival time, dose: 12.5 mg/kg/injection, schedule: Q01DX009 (ip), vehicle: saline with Tween-80 87 % of control | endpoint: mean survival time, dose: 25.0 mg/kg/injection, schedule: Q01DX009 (ip), vehicle: saline with Tween-80 87 % of control | endpoint: mean survival time, dose: 50.0 mg/kg/injection, schedule: Q01DX009 (ip), vehicle: saline with Tween-80 87 % of control and 96 % of control | [1] 103 % of control | [2] 100 % of control

Cc1cc(=O)oc2cc(OC(=O)C(CCCCN)NC(=O)OCc3ccccc3)ccc12 (centres undefined)
inactive: endpoint: mean survival time, dose: 12.5 mg/kg/injection, schedule: Q01DX009 (ip), vehicle: other 107 % of control | endpoint: mean survival time, dose: 25.0 mg/kg/injection, schedule: Q01DX009 (ip), vehicle: other 106 % of control | endpoint: mean survival time, dose: 50.0 mg/kg/injection, schedule: Q01DX009 (ip), vehicle: other 107 % of control | endpoint: mean survival time, dose: 100.0 mg/kg/injection, schedule: Q01DX009 (ip), vehicle: other 101 % of control

Cc1nc(Cl)c2cnccn12
inactive: endpoint: mean survival time, dose: 12.5 mg/kg/injection, schedule: Q04DX003 (ip), vehicle: saline 96 % of control | endpoint: mean survival time, dose: 25.0 mg/kg/injection, schedule: Q04DX003 (ip), vehicle: saline 100 % of control | endpoint: mean survival time, dose: 50.0 mg/kg/injection, schedule: Q04DX003 (ip), vehicle: saline 104 % of control

Cc1c(C)c(CSC#N)c(C)c(C)c1CSC#N
inactive: endpoint: mean survival time, dose: 75.0 mg/kg/injection, schedule: Q04DX003 (ip), vehicle: saline 98 % of control | endpoint: mean survival time, dose: 150.0 mg/kg/injection, schedule: Q04DX003 (ip), vehicle: saline 102 % of control | endpoint: mean survival time, dose: 300.0 mg/kg/injection, schedule: Q04DX003 (ip), vehicle: saline 95 % of control

Cc1ccc([N+](=O)[O-])c2ccccc12
inactive: [1] 91 % of control | [6] 88 % of control | [2] 91 % of control | [7] 90 % of control | [3] 95 % of control | [8] 94 % of control

O=[N+]([O-])c1ccc(Nc2cccc(Cl)c2)c([N+](=O)[O-])c1
inactive: [7] 87 % of control

CCSCCNC1=C(C)C(=O)C2=C(C1=O)[C@H](COC(N)=O)[C@]1(OC)[C@H]3[C@@H](CN21)N3C (some centres undefined)
inactive: endpoint: mean survival time, dose: 1.5 mg/kg/injection, schedule: Q01DX001 (ip), vehicle: distilled water + Tween-80 103 % of control | endpoint: mean survival time, dose: 3.0 mg/kg/injection, schedule: Q01DX001 (ip), vehicle: distilled water + Tween-80 96 % of control and 103 % of control and 109 % of control | endpoint: mean survival time, dose: 6.0 mg/kg/injection, schedule: Q01DX001 (ip), vehicle: distilled water + Tween-80 104 % of control and 107 % of control and 108 % of control | endpoint: mean survival time, dose: 12.0 mg/kg/injection, schedule: Q01DX001 (ip), vehicle: distilled water + Tween-80 115 % of control and 102 % of control and 110 % of control | endpoint: mean survival time, dose: 24.0 mg/kg/injection, schedule: Q01DX001 (ip), vehicle: distilled water + Tween-80 121 % of control and 124 % of control | endpoint: mean survival time, dose: 48.0 mg/kg/injection, schedule: Q01DX001 (ip), vehicle: distilled water + Tween-80 115 % of control

C/C=C(\Cl)C1=CC(=O)C23CC2C2(C)COC1(O)C3(O)O2 (centres undefined)
inactive: endpoint: mean survival time, dose: 1.5 mg/kg/injection, schedule: Q01DX009 (ip), vehicle: saline with Tween-80 93 % of control | endpoint: mean survival time, dose: 3.0 mg/kg/injection, schedule: Q01DX009 (ip), vehicle: saline with Tween-80 93 % of control | endpoint: mean survival time, dose: 6.0 mg/kg/injection, schedule: Q01DX009 (ip), vehicle: saline with Tween-80 110 % of control

CC12COC(=O)C1(C)C1CCC2O1 (centres undefined)
inactive: endpoint: mean survival time, dose: 1.0 mg/kg/injection, schedule: Q04DX002 (ip), vehicle: saline 92 % of control | endpoint: mean survival time, dose: 2.0 mg/kg/injection, schedule: Q04DX002 (ip), vehicle: saline 88 % of control | endpoint: mean survival time, dose: 4.0 mg/kg/injection, schedule: Q04DX002 (ip), vehicle: saline 92 % of control | endpoint: mean survival time, dose: 5.0 mg/kg/injection, schedule: Q01DX002 (ip), vehicle: saline with Tween-80 100 % of control | endpoint: mean survival time, dose: 10.0 mg/kg/injection, schedule: Q01DX002 (ip), vehicle: saline with Tween-80 108 % of control

[N-]=[N+]=NC1=C(Br)C(=O)OC1COC(=O)c1ccccc1 (centres undefined)
inactive: endpoint: mean survival time, dose: 50.0 mg/kg/injection, schedule: Q04DX002 (ip), vehicle: saline with Tween-80 90 % of control | [5] 90 % of control

COc1ccccc1N=O
inactive: endpoint: mean survival time, dose: 12.5 mg/kg/injection, schedule: Q01DX001 (ip), vehicle: Klucel (hydroxypropylcellulose) (HPC) 93 % of control | endpoint: mean survival time, dose: 25.0 mg/kg/injection, schedule: Q01DX001 (ip), vehicle: Klucel (hydroxypropylcellulose) (HPC) 96 % of control | endpoint: mean survival time, dose: 50.0 mg/kg/injection, schedule: Q01DX001 (ip), vehicle: Klucel (hydroxypropylcellulose) (HPC) 93 % of control

O=C(CC1CCCCN1)CC1CCCCN1 (centres undefined)
inactive: endpoint: median survival time, dose: 25.0 mg/kg/injection, schedule: Q04DX003 (ip), vehicle: saline 100 % of control | endpoint: median survival time, dose: 50.0 mg/kg/injection, schedule: Q04DX003 (ip), vehicle: saline 100 % of control | endpoint: median survival time, dose: 100.0 mg/kg/injection, schedule: Q04DX003 (ip), vehicle: saline 90 % of control | endpoint: median survival time, dose: 200.0 mg/kg/injection, schedule: Q04DX003 (ip), vehicle: saline 90 % of control

CC(/C=N/N=C(N)N)=N\N=C(N)N
inactive: endpoint: mean survival time, dose: 12.5 mg/kg/injection, schedule: Q04DX003 (ip), vehicle: Klucel (hydroxypropylcellulose) (HPC) 97 % of control | endpoint: mean survival time, dose: 25.0 mg/kg/injection, schedule: Q04DX003 (ip), vehicle: Klucel (hydroxypropylcellulose) (HPC) 98 % of control | endpoint: mean survival time, dose: 50.0 mg/kg/injection, schedule: Q04DX003 (ip), vehicle: Klucel (hydroxypropylcellulose) (HPC) 110 % of control | endpoint: mean survival time, dose: 53.6 mg/kg/injection, schedule: Q03HX024 (ip), vehicle: clinical formulation 92 % of control | endpoint: median survival time, dose: 120.0 mg/kg/injection, schedule: Q01DX009 (ip), vehicle: saline 87 % of control

COc1ncnc2c1cnn2C1OC(CO)C(O)C1O (centres undefined)
inactive: endpoint: mean survival time, dose: 12.5 mg/kg/injection, schedule: Q01DX005 (ip), vehicle: water 94 % of control | endpoint: mean survival time, dose: 25.0 mg/kg/injection, schedule: Q01DX005 (ip), vehicle: water 96 % of control | endpoint: mean survival time, dose: 50.0 mg/kg/injection, schedule: Q01DX005 (ip), vehicle: water 96 % of control | endpoint: mean survival time, dose: 100.0 mg/kg/injection, schedule: Q01DX005 (ip), vehicle: water 104 % of control | endpoint: mean survival time, dose: 200.0 mg/kg/injection, schedule: Q01DX005 (ip), vehicle: water 107 % of control
